Among the data in PubChem BioAssay AID624491 (Broad Institute, 2012) are AC26 values, retold here.

This assay deals with D54 ERlucT glycosylation luciferase reporter, luminescence, 24 h. Nature of the assay: N-linked glycosylation inhibitors, luciferase reporter, dose response, D54 ERlucT cells, luminescence, cherry-picks (AID 624491).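 Further: signal gain reflects blocked N-linked glycosylation of a luciferase reporter; actives raise luciferase signal so AC26 marks activators of the reporter.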 In general terms: A reporter such as luciferase makes a cellular process visible.

In the case of `COC(=O)c1[nH]c2cc(OC)c(OC)cc2c1/C=N/Nc1ccccc1`, the AC26 is 6360 nM. Regarding `N#CC1=C(N)Oc2c(c(=O)sc3ccccc23)C1c1cccnc1` (stereo not given), the AC26 is 2860 nM. Turning to `Cn1c(-c2ccccc2)c(/C=N/NC(=O)c2ccc(O)cc2)c2ccccc21`, the AC26 is 647 nM. For the compound `CN1C(=O)C(=Cc2sc(=O)n(-c3ccccc3)c2N(C)C)C(=O)N(C)C1=O`, the AC26 is 5320 nM. In the case of `CCN(CC)c1ccc(/C=N/NC(=O)c2cnccn2)cc1`, the AC26 was 780 nM.

For the compound `Cc1nc2ncccn2c1-c1csc(Nc2ccc(N(C)C)cc2)n1`, the AC26 is 31.5 nM. As for `O=C(C[C@H]1C/C=C\C[C@H](Cc2ccc(F)cc2)C(=O)O[C@@H](c2ccccc2)CNC1=O)N[C@@H](CO)Cc1ccccc1`, the AC26 is 892 nM.

Take `O=S(=O)(Cc1ccc(Cl)cc1Cl)c1ccc(Cl)cc1`: the AC26 is 234 nM. `CCN(CC)CCCNc1nc2cc(OC)c(OC)cc2c2nc(-c3ccccc3)nn12`: the AC26 is 811 nM. For the compound `CC1CN(C(=O)c2ccc(COc3ccc4ccccc4c3)o2)CC(C)O1` (stereo not given), the AC26 was 11200 nM. As to `CCCCCCC(=O)N(O)C1CC(=O)N(c2ccc(C)cc2)C1=O` (stereo not given), the AC26 was 3990 nM. The figure for `O=C(CN1C(=O)NC2(CCCCCC2)C1=O)Nc1ccc2c(c1)CCC2` is 1970 nM. For the compound `CC(/C=N/NC(=O)c1cc(-c2ccccc2)nc2ccccc12)=C\c1ccco1`, the AC26 was 2040 nM.

Consider `O=c1[nH]c(-c2ccccc2)nc2sc(-c3ccccc3)cc12`, for which the AC26 is 2320 nM. The figure for `O=C(/C=C/c1ccccc1)c1ccccc1` is 6780 nM; for `O=C1NC(=O)N(Cc2ccco2)C(=O)/C1=C/C=C/c1ccco1` it is 953 nM. Take `COc1ccc(/C=C/C(=O)c2ccc3c(c2)OCCO3)cc1[N+](=O)[O-]`: the AC26 is 5050 nM. On to `CC1CCC2(CC1)NC(=O)N(CC(=O)Nc1ccc3c(c1)CCC3)C2=O` (stereo not given), for which the AC26 is 826 nM.

In the case of `COc1cccc(-c2nn(-c3ccccc3)cc2/C=C\C(=O)c2cccs2)c1`, the AC26 is 1360 nM. Turning to `COc1cc(/C=N/NC(=O)c2cc(-c3cccn3C)n[nH]2)cc(OC)c1OC`, the AC26 was 1730 nM. As to `Cc1cccn2c(=O)c3cc(C(=O)NC4CCCC4)c(=N)n(CCc4ccccc4)c3nc12`, the AC26 was 1280 nM.

For the compound `Nc1sc(-c2ccccc2)cc1-c1n[nH]c(=S)n1C1CCCCC1`, the AC26 is 10700 nM. `C=CCn1c(SCc2c(C)noc2C)nc2sc(C)c(C)c2c1=O`: the AC26 is 891 nM.

`COc1cc2c(C(=O)N3CCN(c4cccc(Cl)c4)CC3)cn(C)c(=O)c2cc1OC`: the AC26 is 3400 nM. Regarding `O=C(COc1ccccc1)Nc1cccc(-c2cn3cccnc3n2)c1`, the AC26 is 5880 nM. Take `O=C(Nc1ccc(-c2nc3cc(NC(=O)c4cccs4)ccc3o2)cc1)c1cccs1`: the AC26 is 4310 nM. With `c1ccc(CN2CCC(Nc3nc(-c4cccnc4)nc4ccccc34)CC2)cc1`, the AC26 is 6130 nM.

As for `CCOC(=O)COc1cccc2c(=O)n(CC(=O)NCc3ccccc3)ccc12`, the AC26 is 2540 nM.

Regarding `CCOc1ccc2[nH]c(C(=O)N/N=C/c3cc(OC)c(OC)c(OC)c3)cc2c1`, the AC26 was 1320 nM. For `COc1cc(C(=O)OCCc2cc3ccccc3c(=O)o2)cc(OC)c1OC` the value was 562 nM; for `Cc1ccccc1NS(=O)(=O)c1ccc2c3c(cccc13)C(=O)N2C`, 3400 nM; for `O=S(=O)([N-]c1nc2ccccc2nc1-n1cc[n+](Cc2ccccc2)c1)c1ccc(Cl)cc1`, 101 nM. As for `Cn1cccc1/C=C1\C(=O)NC(=O)N(Cc2ccccc2)C1=O`, the AC26 is 267 nM.

As to `COC(=O)C1=C(c2cc3ccccc3o2)C[C@@H]2CC[C@H]1N2C(=O)N1CCCCC1`, the AC26 is 14200 nM. Consider `COc1cc2c(cc1OC)C(C)N(C(=O)Nc1cc(C)cc(C)c1)CC2` (stereo not given), for which the AC26 is 6970 nM. As to `O=C(Oc1ccccc1C(=O)Nc1ccccc1)c1ccccc1Br`, the AC26 is 1670 nM. Consider `COc1ccc(C2Nc3ccc4ccccc4c3-c3c2c(=O)oc2ccccc32)cc1` (stereo not given), for which the AC26 was 2070 nM. For `O=C(O)CCC/C=C\C[C@@H]1[C@@H](/C=C/[C@@H](O)COc2cccc(Cl)c2)[C@H](O)C[C@@H]1O` the value was less than 1.2 nM; for `C[C@@]12C(=O)Nc3cc(Cl)ccc3C(=O)N1[C@H]1c3ccccc3OC[C@@H]1[C@@H]2c1ccccc1`, 397 nM; for `COc1ccc(N2CCc3c(C)nc4c(OC)cccc4c32)cc1`, 368 nM. `Cc1ccc(C(=O)N/C(=C\c2ccco2)C(=O)NCCc2c[nH]c3ccccc23)cc1`: the AC26 is 2310 nM. With `COc1cc(OC)cc(C(=O)c2c(C)c(C#N)c3ccccn23)c1`, the AC26 was 1220 nM. In the case of `CCN(CC)CCC(=O)Nc1cccc2c1C(=O)c1ccccc1C2=O`, the AC26 was 965 nM.

Regarding `O=C1NC[C@H](Cc2ccccc2)N(C[C@H]2CCCN2C[C@H](Cc2ccccc2)N2C[C@H](Cc3ccc(O)cc3)N(CCc3ccccc3)C(=O)C2=O)C1=O`, the AC26 is 5790 nM. Turning to `O=[N+]([O-])c1cc(S(=O)(=O)C(F)(F)F)ccc1Sc1nc2ccccc2[nH]1`, the AC26 was 4570 nM. In the case of `Cn1c(=O)[nH]c(=O)c2c1nc(N(CCO)Cc1ccccc1)n2CCCc1ccccc1`, the AC26 is 800 nM. Consider `CC(=O)n1cc(/C=N/NC(=O)c2sc(C)nc2C)c2ccccc21`, for which the AC26 is 10000 nM. Take `COc1ccc(NC(=O)CSc2c3c(nc4ccccc24)CCCC3)c(OC)c1`: the AC26 is 9240 nM. For the compound `CC(NC(=O)c1ccc2ccccc2n1)c1ccc(S(N)(=O)=O)cc1` (stereo not given), the AC26 is 4020 nM.

For `Cc1noc2ncnc(Sc3ccc(Br)cc3)c12`, the AC26 is 4470 nM. Take `CC1(C(=O)NCc2cccs2)Cc2c(-c3cccc(C(F)(F)F)c3)ccnc2O1` (stereo not given): the AC26 is 15100 nM. In the case of `O=C(CNC(=O)c1ccco1)N=Nc1c(O)n(CCc2ccccc2)c2ccccc12`, the AC26 is 1430 nM.

For the compound `Cn1cnc(Sc2ncnc3nc[nH]c23)c1[N+](=O)[O-]`, the AC26 was 1140 nM.

As to `CCCNc1nc2ccccc2n2c(C)nnc12`, the AC26 is 2980 nM. With `CCCOc1ccc2ccccc2c1/C=N/n1c(C)nnc1-n1nc(C)cc1C`, the AC26 was 503 nM. For the compound `COc1ccc(OC)c2nc3c(C(=O)NCCN(C)C)cccc3nc12`, the AC26 was 187 nM. As to `CN(C)S(=O)(=O)c1ccc(N2CCCC2)c(C(=O)Nc2nc3ccc(F)cc3s2)c1`, the AC26 is 1540 nM.

Turning to `COCCNC(=S)N1CCc2cc(OC)c(OC)cc2C1c1cccs1` (stereo not given), the AC26 is 455 nM. In the case of `COc1cc(/C=N/n2cnc3scc(-c4cccs4)c3c2=O)cc(OC)c1OC`, the AC26 is 701 nM.

As to `COc1ccccc1NS(=O)(=O)c1ccc(-c2cc(C)no2)s1`, the AC26 is 5830 nM. For `Cc1ccc(NC2=NC3(CCCC3)N=C(N)N2)c(C)c1` the value was 4230 nM; for `COc1cc(C(=O)N/N=C(\C)c2ccc3c(c2)OCO3)cc(OC)c1OC`, 1260 nM. For `COc1ccc(C(=O)NCC(c2ccco2)N2CCc3ccccc32)cc1` (stereo not given) the value was 2300 nM; for `Cc1cc(Cl)ccc1OCCCC(=O)NO`, 2730 nM. As to `COc1ccc(OC)c(Nc2nc(-c3c(C)nc4ncccn34)cs2)c1`, the AC26 was 2730 nM. Regarding `CC(=O)c1cccc(-c2ccnc3c2CC(C(=O)NCc2ccc(F)c(F)c2)O3)c1` (stereo not given), the AC26 was 1370 nM. Consider `Cn1nc(C(F)(F)F)c(/C=N/OC(=O)c2ccccc2Cl)c1SCc1ccc(Cl)cc1`, for which the AC26 was 3940 nM. With `CCn1c(=O)c2cc(C(=O)NCCN(C)C)sc2c2ccccc21`, the AC26 is 5230 nM. For `CCCOc1ccccc1C1CC(=O)NC2=C1C(=O)CCC2` (stereo not given), the AC26 is 2250 nM. For `O=C(N/N=C/c1c[nH]c2ccccc12)C1COc2ccccc2O1` (stereo not given), the AC26 is 1310 nM. For `COc1cc(F)ccc1-c1csc(C(NC(C)=O)c2ccccc2)n1` (stereo not given), the AC26 was 11.1 nM. For the compound `COc1ccc(C(=O)NCc2nnc(SCC(=O)NO)n2Cc2ccccc2)cc1`, the AC26 was 4440 nM. The figure for `CCC1=Nc2cc(C(=O)NCCCOC)ccc2Sc2ccccc21` is 422 nM; for `Cc1ccc(-n2c(SCC(=O)NCCC3=CCCCC3)nc3n[nH]c(C)c3c2=N)cc1Cl` it is 6130 nM. As to `COc1cccc(N2[C@@H](CC(C)=O)c3ccc(/C=C/C(C)=O)cc3S2(=O)=O)c1`, the AC26 was 3280 nM.

In the case of `CN1CCN(C(c2ccc(Br)cc2)c2cc(Cl)c3cccnc3c2O)CC1` (stereo not given), the AC26 was 1810 nM. Take `O=C(NC(=C(Cl)Cl)S(=O)(=O)c1ccc(Cl)cc1)c1ccccc1`: the AC26 is 594 nM. Consider `CCOc1ccc(Cl)cc1C1=CC(=O)C[C@H](c2ccc(OC)cc2)C1`, for which the AC26 is 472 nM. For the compound `Cc1cccc(N2CCN(C(=O)c3cc(S(=O)(=O)N4CCCC4)cn3C)CC2)c1C`, the AC26 is 2050 nM.

For the compound `COc1cc(NC(=O)c2ccccc2OCc2ccccc2)cc(OC)c1OC`, the AC26 was 1030 nM. Regarding `COc1ccc2nc(C)cc(Nc3ccc(N4CCOCC4)cc3)c2c1`, the AC26 is 1260 nM.

`CC(=O)Nc1cccc(-c2ccnc3c2CC(C)(C(=O)NCc2ccco2)O3)c1` (stereo not given): the AC26 was 617 nM. The figure for `O=C1[C@H]2[C@@H](c3ccc(F)cc3)N3C(=O)N(c4cccc(Br)c4)C(=O)[C@@]3(Cc3ccccc3)[C@H]2C(=O)N1C1CCCCC1` is 114 nM; for `COc1ccc2cc(C)c3nnc(SCC(=O)Nc4nc(-c5ccc(F)cc5)cs4)n3c2c1` it is 2360 nM; for `OCCCNc1c2ccccc2nc2ccccc12` it is 467 nM. Consider `CCc1ccc(/C=N/NC(=O)c2nnn(-c3nonc3N)c2C(C)C)cc1`, for which the AC26 was 6420 nM. For `O=C(CCl)Nc1cccc(S(=O)(=O)NC2=NCCC2)c1`, the AC26 was 939 nM. In the case of `CN(C)CCNC(=O)c1cccc2[nH]c(-c3ccncc3)nc12`, the AC26 was 894 nM. `C[C@@]12C(=O)Nc3cc(F)c(F)cc3C(=O)N1[C@H]1c3ccccc3OC[C@@H]1[C@@H]2c1ccccc1`: the AC26 is 784 nM. `O=C(CN1C(=O)NC(c2ccccc2)(c2ccccc2)C1=O)Nc1ccc(N2CCOCC2)cc1`: the AC26 was 4200 nM. Consider `Cc1noc2ncnc(Sc3ccccc3Cl)c12`, for which the AC26 was 12500 nM. The figure for `CCOc1ccc(/C=N/NC(=O)c2cc3c(OC)cccc3[nH]2)cc1` is 3800 nM. For `COc1ccc(C(=O)CSc2nnc(-c3cc4ccccc4cc3O)n2Cc2ccco2)cc1`, the AC26 is 1840 nM. In the case of `Cc1cc(C)nc(/N=C(\N)Nc2ccc(OCc3ccccc3)cc2)n1`, the AC26 is 8.88 nM. Consider `Cc1cc2nnc(SCC(=O)NCc3ccco3)n2c2ccccc12`, for which the AC26 is 1360 nM.
